Assay [1] has as its target Sodium-dependent serotonin transporter (Rattus norvegicus, UniProt P31652).
For assay [2], the target named is 5-hydroxytryptamine receptor 7 (Rattus norvegicus, UniProt P32305).
Assay [3] addresses 5-hydroxytryptamine receptor 6 (Rattus norvegicus, UniProt P31388).
Assay [4] deals with 5-hydroxytryptamine receptor 2A (Rattus norvegicus, UniProt P14842).
The target of assay [5] is T1, 5-hydroxytryptamine receptor 3A (Rattus norvegicus, UniProt P35563).
T1 sequence (P35563 whole entry): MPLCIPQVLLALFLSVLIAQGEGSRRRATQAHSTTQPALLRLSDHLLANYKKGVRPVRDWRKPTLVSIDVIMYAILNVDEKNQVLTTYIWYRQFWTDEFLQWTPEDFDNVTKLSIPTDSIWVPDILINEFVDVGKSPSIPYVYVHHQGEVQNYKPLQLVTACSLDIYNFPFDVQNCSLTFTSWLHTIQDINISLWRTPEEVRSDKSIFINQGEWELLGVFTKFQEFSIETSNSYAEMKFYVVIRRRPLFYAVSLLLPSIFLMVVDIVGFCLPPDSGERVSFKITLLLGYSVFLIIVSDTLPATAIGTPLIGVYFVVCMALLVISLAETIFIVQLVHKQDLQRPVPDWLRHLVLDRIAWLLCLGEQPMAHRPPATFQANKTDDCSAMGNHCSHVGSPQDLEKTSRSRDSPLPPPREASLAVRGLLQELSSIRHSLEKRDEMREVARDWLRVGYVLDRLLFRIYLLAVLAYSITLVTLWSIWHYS

Assay [6] concerns the target T2, 5-hydroxytryptamine receptor 1A (Rattus norvegicus, UniProt P19327).
T2 sequence (P19327 whole entry): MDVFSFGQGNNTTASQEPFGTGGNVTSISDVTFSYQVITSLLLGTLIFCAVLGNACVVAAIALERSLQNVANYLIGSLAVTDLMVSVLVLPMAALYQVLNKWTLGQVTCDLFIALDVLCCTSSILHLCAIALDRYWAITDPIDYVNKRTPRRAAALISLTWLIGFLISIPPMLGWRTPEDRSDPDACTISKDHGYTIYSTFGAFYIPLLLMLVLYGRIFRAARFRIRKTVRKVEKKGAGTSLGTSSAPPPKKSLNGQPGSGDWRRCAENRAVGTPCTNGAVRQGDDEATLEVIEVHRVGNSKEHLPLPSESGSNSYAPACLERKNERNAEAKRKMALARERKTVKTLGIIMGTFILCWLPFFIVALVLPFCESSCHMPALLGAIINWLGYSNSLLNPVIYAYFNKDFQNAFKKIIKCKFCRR

Assay [7] deals with T3, 5-hydroxytryptamine receptor 2C (Rattus norvegicus, UniProt P08909).
T3 sequence (P08909 whole entry): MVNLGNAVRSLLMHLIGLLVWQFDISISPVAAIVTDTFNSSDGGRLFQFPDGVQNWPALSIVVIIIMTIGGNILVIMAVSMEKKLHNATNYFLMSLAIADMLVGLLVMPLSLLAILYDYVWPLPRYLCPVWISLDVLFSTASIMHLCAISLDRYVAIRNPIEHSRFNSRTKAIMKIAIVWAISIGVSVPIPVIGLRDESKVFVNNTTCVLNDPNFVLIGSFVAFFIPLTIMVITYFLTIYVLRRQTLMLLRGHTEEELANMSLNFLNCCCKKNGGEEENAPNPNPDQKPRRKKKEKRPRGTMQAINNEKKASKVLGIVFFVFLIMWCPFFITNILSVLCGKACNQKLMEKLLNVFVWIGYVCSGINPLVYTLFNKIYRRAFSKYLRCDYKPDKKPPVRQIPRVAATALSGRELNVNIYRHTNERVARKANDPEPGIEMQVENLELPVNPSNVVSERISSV

For assay [8], the target named is 5-hydroxytryptamine receptor 1B (Bos mutus, UniProt L8IGV0).
5-hydroxytryptamine receptor 1B, sequence (L8IGV0 whole entry): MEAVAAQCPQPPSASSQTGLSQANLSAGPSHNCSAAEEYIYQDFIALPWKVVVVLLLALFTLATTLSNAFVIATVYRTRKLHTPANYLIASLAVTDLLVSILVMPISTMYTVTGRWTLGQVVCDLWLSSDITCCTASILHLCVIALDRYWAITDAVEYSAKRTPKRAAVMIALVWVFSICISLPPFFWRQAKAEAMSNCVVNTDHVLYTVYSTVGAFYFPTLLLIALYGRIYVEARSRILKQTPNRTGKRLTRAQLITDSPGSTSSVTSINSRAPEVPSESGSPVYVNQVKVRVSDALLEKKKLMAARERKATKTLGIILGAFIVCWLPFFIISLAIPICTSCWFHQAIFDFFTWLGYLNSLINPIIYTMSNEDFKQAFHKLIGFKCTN

5-hydroxytryptamine receptor 6, sequence (P31388 whole entry): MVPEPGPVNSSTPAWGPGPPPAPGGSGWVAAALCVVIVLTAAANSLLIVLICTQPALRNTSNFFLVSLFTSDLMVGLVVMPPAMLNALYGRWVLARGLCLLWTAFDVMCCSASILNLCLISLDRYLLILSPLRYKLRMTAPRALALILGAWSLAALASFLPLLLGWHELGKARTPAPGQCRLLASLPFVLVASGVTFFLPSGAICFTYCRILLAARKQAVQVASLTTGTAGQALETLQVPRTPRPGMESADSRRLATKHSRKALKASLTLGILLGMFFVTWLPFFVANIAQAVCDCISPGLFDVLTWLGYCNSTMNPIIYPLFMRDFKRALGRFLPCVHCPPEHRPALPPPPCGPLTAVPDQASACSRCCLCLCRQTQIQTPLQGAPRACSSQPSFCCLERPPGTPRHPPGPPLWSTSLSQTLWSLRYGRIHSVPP
5-hydroxytryptamine receptor 7, sequence (P32305 whole entry): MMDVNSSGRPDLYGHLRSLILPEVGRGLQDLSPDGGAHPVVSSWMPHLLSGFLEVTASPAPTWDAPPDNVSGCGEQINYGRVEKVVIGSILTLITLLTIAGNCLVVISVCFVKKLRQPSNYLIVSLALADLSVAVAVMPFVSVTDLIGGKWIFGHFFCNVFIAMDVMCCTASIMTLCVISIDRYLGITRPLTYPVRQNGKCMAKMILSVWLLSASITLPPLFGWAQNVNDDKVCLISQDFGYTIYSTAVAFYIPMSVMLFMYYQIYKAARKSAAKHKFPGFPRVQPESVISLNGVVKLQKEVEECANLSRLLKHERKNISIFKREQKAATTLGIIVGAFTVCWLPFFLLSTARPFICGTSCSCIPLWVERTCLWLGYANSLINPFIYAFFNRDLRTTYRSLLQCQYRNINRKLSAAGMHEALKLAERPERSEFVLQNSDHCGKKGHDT
5-hydroxytryptamine receptor 2A, sequence (P14842 whole entry): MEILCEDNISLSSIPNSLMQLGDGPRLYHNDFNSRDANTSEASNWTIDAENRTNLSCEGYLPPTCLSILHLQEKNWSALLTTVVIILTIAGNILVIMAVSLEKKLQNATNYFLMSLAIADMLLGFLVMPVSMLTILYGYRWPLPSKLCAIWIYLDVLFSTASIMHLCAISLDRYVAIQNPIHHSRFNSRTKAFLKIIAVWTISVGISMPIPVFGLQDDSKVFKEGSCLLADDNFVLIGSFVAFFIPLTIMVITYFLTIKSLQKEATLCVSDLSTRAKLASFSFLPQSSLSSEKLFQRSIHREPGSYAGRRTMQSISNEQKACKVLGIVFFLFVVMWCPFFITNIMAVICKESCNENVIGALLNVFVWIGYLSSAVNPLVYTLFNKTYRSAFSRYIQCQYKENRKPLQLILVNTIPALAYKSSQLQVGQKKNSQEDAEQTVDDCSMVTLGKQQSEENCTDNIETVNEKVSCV
Sodium-dependent serotonin transporter, sequence (P31652 whole entry): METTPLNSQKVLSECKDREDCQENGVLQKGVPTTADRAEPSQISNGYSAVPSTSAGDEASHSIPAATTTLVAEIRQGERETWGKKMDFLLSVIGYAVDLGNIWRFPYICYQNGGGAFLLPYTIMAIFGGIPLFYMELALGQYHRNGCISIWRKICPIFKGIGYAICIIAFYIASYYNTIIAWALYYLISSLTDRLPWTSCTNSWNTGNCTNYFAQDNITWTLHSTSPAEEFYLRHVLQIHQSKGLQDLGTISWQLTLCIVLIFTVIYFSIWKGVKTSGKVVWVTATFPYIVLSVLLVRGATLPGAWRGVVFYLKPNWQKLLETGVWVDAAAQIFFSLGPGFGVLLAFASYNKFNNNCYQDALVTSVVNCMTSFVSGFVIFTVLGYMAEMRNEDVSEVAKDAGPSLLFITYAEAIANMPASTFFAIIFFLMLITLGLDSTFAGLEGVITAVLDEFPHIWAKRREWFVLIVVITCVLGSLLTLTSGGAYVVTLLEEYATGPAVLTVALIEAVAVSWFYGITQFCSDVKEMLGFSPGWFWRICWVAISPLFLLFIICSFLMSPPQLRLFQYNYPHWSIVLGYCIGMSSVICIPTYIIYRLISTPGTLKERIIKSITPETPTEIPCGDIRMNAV

As to `CCCN(C(C)C)[C@H]1COc2cccc(C(N)=O)c2C1` [(R)-3-[Isopropyl(propyl)amino]-3,4-dihydro-2H-1-benzopyran-5-carboxamide], the Ki in assay [1] is over 10000 nM; in assay [2], 88 nM; in assay [3], over 10000 nM; in assay [4], 1000 nM; in assay [5] it was 500 nM; in assay [6] it was 0.26 nM. This molecule had a Ki in assay [7] of 500 nM.
Turning to `CCCN(C(C)C)[C@H]1COc2cccc(C(=O)NC(C)C)c2C1` [(R)-N-Isopropyl-3-[isopropyl(propyl)amino]-3,4-dihydro-2H-1-benzopyran-5-carboxamide], the Ki in assay [2] is 240 nM; in assay [8], 1400 nM; in assay [3], over 10000 nM; in assay [4], over 10000 nM; in assay [5], 500 nM; in assay [6] it was 4.5 nM. The molecule also had a Ki in assay [7] of 500 nM.

(Values after BindingDB's records for PubMed 11714872 (Astrazeneca R&D, 2001).)
